From patent US12227496B2 (BRISTOL-MYERS SQUIBB COMPANY, priority 2019, dated 2025)

target: T1, human FXR (Homo sapiens, UniProt Q96RI1); experiment: transient human FXR/Gal4-luciferase reporter assay; assay type: cell-based; details: Gal4-hFXR LBD fusion, luciferase reporter in HEK293 cells; response relative to 8 μM GW-4064
T1 construct: expressed in transfected cells; host or cells: HEK293 cells stably carrying a 5xGal4-response-element firefly luciferase reporter, transiently transfected with pcDNA3.1-Gal4-FXR
T1 sequence (Q96RI1 262-486 limits assumed): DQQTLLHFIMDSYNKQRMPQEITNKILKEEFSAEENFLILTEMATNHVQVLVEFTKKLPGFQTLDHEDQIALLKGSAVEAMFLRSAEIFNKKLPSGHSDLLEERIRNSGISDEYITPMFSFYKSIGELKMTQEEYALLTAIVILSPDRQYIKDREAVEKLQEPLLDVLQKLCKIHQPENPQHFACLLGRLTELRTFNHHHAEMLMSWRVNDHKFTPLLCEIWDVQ
Outline: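 HEK293 cells stably carrying a 5×Gal4-response-element firefly luciferase reporter were transiently transfected with Gal4-hFXR. They were then incubated overnight at 37 °C with compound serial dilutions in medium containing 10% charcoal/dextran-stripped FBS. Luminescence was read after Steady-Glo addition.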

SMILES	EC50 [nM]
CCOC(=O)c1nc(-c2cccc(N(CC34CCC(c5nc(C6CC6)no5)(CC3)CC4)C(=O)C3CCCCC3)c2)cs1 [Example 31, Ethyl 4-(3-(N-((4-(3-cyclopropyl-1,2,4-oxadiazol-5-yl)bicyclo[2.2.2]octan-1-yl)methyl)cyclohexanecarboxamido)phenyl)thiazole-2-carboxylate]	1200
O=C(C1CCC(F)(F)CC1)N(CC12CCC(c3nc(C4CC4)no3)(CC1)CC2)c1cccc(-c2nc3cc(F)ccc3o2)c1 [Example 93, N-((4-(3-cyclopropyl-1,2,4-oxadiazol-5-yl)bicyclo[2.2.2]octan-1-yl)methyl)-4,4-difluoro-N-(3-(5-fluorobenzo[d]oxazol-2-yl)phenyl)cyclohexane-1-carboxamide]	799
CC(C)(O)c1nc(-c2cccc(N(CC34CCC(c5nc(C6CC6)no5)(CC3)CC4)C(=O)C3CCCCC3)c2)cs1 [Example 32, N-((4-(3-cyclopropyl-1,2,4-oxadiazol-5-yl)bicyclo[2.2.2]octan-1-yl)methyl)-N-(3-(2-(2-hydroxypropan-2-yl)thiazol-4-yl)phenyl)cyclohexanecarboxamide]	320
COc1cc(-c2cccc(N(CC34CCC(c5nc(C6CC6)no5)(CC3)CC4)C(=O)C3CCOCC3)c2)ccn1 [Example 83, N-((4-(3-cyclopropyl-1,2,4-oxadiazol-5-yl)bicyclo[2.2.2]octan-1-yl)methyl)-N-(3-(2-methoxypyridin-4-yl)phenyl)tetrahydro-2H-pyran-4-carboxamide]	303
CC(F)(F)c1nc(C23CCC(CN(C(=O)C4CCC(O)(C(F)(F)F)CC4)c4cccc(-c5cc(C6CC6)on5)c4)(CC2)CC3)no1 (stereo not shown) [Example 158, N-(3-(5-cyclopropylisoxazol-3-yl)phenyl)-N-((4-(5-(1,1-difluoroethyl)-1,2,4-oxadiazol-3-yl)bicyclo[2.2.2]octan-1-yl)methyl)-4-hydroxy-4-(trifluoromethyl)cyclohexane-1-carboxamide]	195
COc1cccc(-c2cccc(N(C(=O)C3CCCCC3)C(C)C34CCC(c5nc(C)no5)(CC3)CC4)c2)c1 (single isomer, unassigned) [Example 94, N-(3′-methoxy-[1,1′-biphenyl]-3-yl)-N-(1-(4-(3-methyl-1,2,4-oxadiazol-5-yl)bicyclo[2.2.2]octan-1-yl)ethyl)cyclohexanecarboxamide]	3940
O=C(N1CCCC(CO)C1)N(CC12CCC(c3nc(C4CC4)no3)(CC1)CC2)c1cccc(-c2nc(C3CC3)no2)c1 (racemic) [Example 65, N-((4-(3-cyclopropyl-1,2,4-oxadiazol-5-yl)bicyclo[2.2.2]octan-1-yl)methyl)-N-(3-(3-cyclopropyl-1,2,4-oxadiazol-5-yl)phenyl)-3-(hydroxymethyl)piperidine-1-carboxamide]	740
CCc1noc(-c2cccc(N(C(=O)C3CCCCC3)C(C)C34CCC(c5nc(C)no5)(CC3)CC4)c2)n1 (single isomer, unassigned) [Example 71, N-(3-(3-ethyl-1,2,4-oxadiazol-5-yl)phenyl)-N-(1-(4-(3-methyl-1,2,4-oxadiazol-5-yl)bicyclo[2.2.2]octan-1-yl)ethyl)cyclohexanecarboxamide]	547
COCc1nc(-c2cccc(N(CC34CCC(c5nc(C6CC6)no5)(CC3)CC4)C(=O)C3CCCCC3)c2)cs1 [Example 49, N-((4-(3-cyclopropyl-1,2,4-oxadiazol-5-yl)bicyclo[2.2.2]octan-1-yl)methyl)-N-(3-(2-(methoxymethyl)thiazol-4-yl)phenyl)cyclohexanecarboxamide]	105
O=C(C1CCCOC1)N(CC12CCC(c3nc(C4CC4)no3)(CC1)CC2)c1cccc(-c2nc3cc(F)ccc3o2)c1 (racemic) [Example 92, N-((4-(3-cyclopropyl-1,2,4-oxadiazol-5-yl)bicyclo[2.2.2]octan-1-yl)methyl)-N-(3-(5-fluorobenzo[d]oxazol-2-yl)phenyl)tetrahydro-2H-pyran-3-carboxamide]	589
